One data set deals with T1, human A1 receptor (Homo sapiens, UniProt P30542).
T1 sequence (P30542 1-326): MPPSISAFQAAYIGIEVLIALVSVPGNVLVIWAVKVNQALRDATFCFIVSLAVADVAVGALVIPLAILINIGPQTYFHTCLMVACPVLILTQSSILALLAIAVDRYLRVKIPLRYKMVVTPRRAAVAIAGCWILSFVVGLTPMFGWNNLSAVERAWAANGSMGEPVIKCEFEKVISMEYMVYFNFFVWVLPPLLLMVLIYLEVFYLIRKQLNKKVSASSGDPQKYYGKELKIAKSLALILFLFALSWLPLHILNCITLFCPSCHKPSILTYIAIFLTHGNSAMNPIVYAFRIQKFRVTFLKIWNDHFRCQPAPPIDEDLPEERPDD
The experiment in a line: Adenosine antagonistic activity, radioligand binding ([3H]DPCPX). The note with it: [3H]DPCPX 4.5 nM. The protocol: (§1) Test 1: Adenosine Antagonistic Activity
(§2) The adenosine antagonistic activity [Ki (nM)] of the test compound was examined by radioligand binding techniques using 8-cyclopentyl-1,3-dipropylxanthine, [dipropyl-2,3-^3H(N)] ([^3H]DPCPX, 4.5 nM) for human A1 receptor and [^3H]CGS 21680 (20 nM) for human A2a receptor.

The target of the next data set is human A2a receptor (Homo sapiens, UniProt P29274). The data set is described as follows: Adenosine antagonistic activity, radioligand binding ([3H]CGS 21680). As to conditions: [3H]CGS 21680 20 nM. The protocol: as §1, §2
The next data set has as its system ddY mice. The experiment in a line: Anticatalepsy activity in mouse (haloperidol-induced catalepsy, bar test). As to conditions: 3.2 mg/kg orally, ddY mice n=7; haloperidol 0.32 mg/kg i.p. 30 min after compound; measured 30 min after injection, up to 30 sec. The format is in vivo. The protocol:
Test 2: Anticatalepsy Activity in Mouse [I] Test Method
The test compound (3.2 mg/kg) was administered orally with ddY mice (n=7). Then, haloperidol (0.32 mg/kg) was injected intraperitoneally 30 min. after the administration of the compound. Thirty min. after the injection, the cataleptic responses of mice were measured. The forelimbs of each mouse were placed on a 3 cm high, 3 mm wide horizontal bar, and the duration of cataleptic posture was measured for up to 30 sec.

SMILES strings stand for the structures.

Chain of human A2a receptor (P29274 whole entry): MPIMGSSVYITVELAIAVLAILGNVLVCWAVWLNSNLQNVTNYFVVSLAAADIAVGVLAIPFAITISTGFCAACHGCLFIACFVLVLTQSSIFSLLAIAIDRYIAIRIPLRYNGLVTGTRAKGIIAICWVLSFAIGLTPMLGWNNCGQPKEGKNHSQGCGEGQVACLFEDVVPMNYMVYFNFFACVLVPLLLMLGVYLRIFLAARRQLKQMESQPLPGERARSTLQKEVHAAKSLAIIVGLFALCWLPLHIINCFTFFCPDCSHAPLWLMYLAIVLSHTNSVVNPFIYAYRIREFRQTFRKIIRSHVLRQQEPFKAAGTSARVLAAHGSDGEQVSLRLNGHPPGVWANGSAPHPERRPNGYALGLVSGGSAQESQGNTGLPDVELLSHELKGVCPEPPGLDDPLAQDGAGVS

Usually Ki stands for a dissociation constant, usually derived from enzyme kinetics or from competition with a known ligand. A higher Ki goes with lower affinity. As usually defined, the melting point is the temperature, or range, at which the solid turns liquid. As for `CC(C)n1nc(-c2nc(C#Cc3cncn3C)c(N)nc2-c2ccccc2)ccc1=O` [Example 75, 6-{5-amino-6-[(1-methyl-1H-imidazol-5-yl)ethynyl]-3-phenyl-2-pyrazinyl}-2-isopropyl-3(2H)-pyridazinone], the melting point was > 250 °C. In addition, the Ki at human A1 receptor was determined as 0.72 nM. The Ki on human A2a receptor is 0.25 nM. Also, in the data set on ddY mice, the “Manifestation rate of Catalepsy (number of mouse)” value (shortened to “Manifestation rate of Catalepsy”) is 0/7.
The corresponding values for `CCCCOc1nc(-c2ccc(=O)n(C)n2)c(-c2ccccc2)nc1N` [Example 179, 6-(5-amino-6-butoxy-3-phenyl-2-pyrazinyl)-2-methyl-3(2H)-pyridazinone] are 143 to 144 °C, 16.4 nM, 1.57 nM and 1/7.
For `Cn1nc(-c2nc(OCc3ccco3)c(N)nc2-c2ccccc2)ccc1=O` [Example 184, 6-[5-amino-6-(2-furylmethoxy)-3-phenyl-2-pyrazinyl]-2-methyl-3(2H)-pyridazinone], in that order: 158 to 159.5 °C, 13.2 nM, 1.49 nM and 2/7.
The corresponding values for `Cn1nc(-c2nc(-n3cccn3)c(N)nc2-c2ccccc2)ccc1=O` [Example 153, 6-[5-amino-3-phenyl-6-(1H-pyrazol-1-yl)-2-pyrazinyl]-2-methyl-3(2H)-pyridazinone] are 187 to 189.5 °C, 18.9 nM, 4.95 nM and 2/7.
Regarding `CC(C)n1nc(-c2nc(Cl)c(N)nc2-c2ccc(F)cc2)ccc1=O` [Example 37, 6-[5-Amino-6-chloro-3-(4-fluorophenyl)-2-pyrazinyl]-2-isopropyl-3(2H)-pyridazinone], the results for the Ki on human A1 receptor and at human A2a receptor were 15.9 nM and 2.65 nM, respectively. In addition, the “Manifestation rate of Catalepsy” value in the data set with ddY mice is 0/7.
Regarding `CC(C)n1nc(-c2nc(OCc3ccccn3)c(N)nc2-c2ccccc2)ccc1=O` [Example 163, 6-[5-amino-3-phenyl-6-(2-pyridylmethoxy)-2-pyrazinyl]-2-isopropyl-3(2H)-pyridazinone], the melting point lay within 150 to 151 °C. On human A1 receptor, this compound yielded a Ki of 1.35 nM. The affinity on human A2a receptor corresponds to a Ki of 0.42 nM. The “Manifestation rate of Catalepsy” value with ddY mice was 2/7.
For `CC(C)n1nc(-c2nc(C#Cc3ccccc3)c(N)nc2-c2ccccc2)ccc1=O` [Example 70, 6-[5-amino-3-phenyl-6-(phenylethynyl)-2-pyrazinyl]-2-isopropyl-3(2H)-pyridazinone], in that order: 239 to 241 °C, 0.88 nM, 0.29 nM and 0/7.
For `CC(C)n1nc(-c2nc(NCc3ccco3)c(N)nc2-c2ccccc2)ccc1=O` [Example 134, 6-{5-amino-6-[(2-furylmethyl)amino]-3-phenyl-2-pyrazinyl}-2-isopropyl-3(2H)-pyridazinone], in that order: 206.5 to 209 °C, 6.66 nM, 2.6 nM and 1/7.
As to `Cn1nc(-c2nc(C#N)c(N)nc2-c2ccccc2)ccc1=O` [Example 17, 3-Amino-6-(1-methyl-6-oxo-1,6-dihydro-3-pyridazinyl)-5-phenyl-2-pyrazinecarbonitrile], the melting point was > 250 °C. Besides, the affinity at human A1 receptor, expressed as Ki, was 11.2 nM. For the same compound, the affinity at human A2a receptor corresponds to a Ki of 1.72 nM. Besides, the “Manifestation rate of Catalepsy” value in the data set on ddY mice is recorded as 0/7.
With `CC(C)n1nc(-c2ncc(N)nc2-c2ccc(F)cc2)ccc1=O` [Example 36, 6-[5-Amino-3-(4-fluorophenyl)-2-pyrazinyl]-2-isopropyl-3(2H)-pyridazinone], the Ki on human A1 receptor was 23 nM; at human A2a receptor it was 6.89 nM. The “Manifestation rate of Catalepsy” value in the data set on ddY mice is on record as 0/7.
`CC(C)n1nc(-c2nc(Br)c(N=S(C)C)nc2-c2ccccc2)ccc1=O` [Example 66, 6-{6-bromo-5-[(dimethyl-lambda˜4˜-sulfanylidene)amino]-3-phenyl-2-pyrazinyl}-2-isopropyl-3(2H)-pyridazinone] came in with a melting point of 220 to 224 °C. The compound also returned an inhibition constant (Ki) at human A1 receptor of 16 nM. At human A2a receptor, the affinity, expressed as Ki, was 6.79 nM. For the same compound, the “Manifestation rate of Catalepsy” value in the data set on ddY mice is reported as 1/7.

Source of the values: patent US7265120B2, “Pyrazine derivatives and pharmaceutical use thereof” (Astellas Pharma Inc., priority 2004, dated 2007).
